Measurements from ChEMBL document CHEMBL1201862, “PubChem BioAssay data set” (2004).
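Interpolation was linear, between the two tested concentrations surrounding the appropriate level; five concentrations were tested over 48 hours in 96-well plates. GI50 is the concentration that inhibits growth by half.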 Activity calls are given as the source filed them. Cut-off read from the data, not from the text of the source: active = GI50 up to about 1.1 µM and inactive = higher.

How the values were obtained:
Test in all cases: growth of human tumour cells (NCI), 48 h
SF-295 = tested on: SF-295
IGROV-1 = tested on: IGROV-1
SF-539 = tested on: SF-539
OVCAR-8 = tested on: OVCAR-8
KM12 = tested on: KM12
TK-10 = tested on: TK-10
SF-268 = tested on: SF-268
UO-31 = tested on: UO-31
COLO 205 = tested on: COLO 205
LOX IMVI = tested on: LOX IMVI
A498 = tested on: A498
SW-620 = tested on: SW-620
RXF 393 = tested on: RXF 393
CCRF-CEM = tested on: CCRF-CEM
NCI-H226 = tested on: NCI-H226
HT-29 = tested on: HT-29
HOP-92 = tested on: HOP-92
SR = tested on: SR

Structure (SMILES) | GI50 (SF-295) | GI50 (IGROV-1) | GI50 (SF-539) | GI50 (OVCAR-8) | GI50 (KM12) | GI50 (TK-10) | GI50 (SF-268) | GI50 (UO-31) | GI50 (COLO 205) | GI50 (LOX IMVI) | GI50 (A498) | GI50 (SW-620) | GI50 (RXF 393) | GI50 (CCRF-CEM) | GI50 (NCI-H226) | GI50 (HT-29) | GI50 (HOP-92) | GI50 (SR)
c1cc2c(cc1C1OCC3C(c4ccc5c(c4)OCO5)OCC13)OCO2 (centres undefined) | 87.1 µM (inactive) | 75.2 µM (inactive) | > 100 µM (inactive) | 85.3 µM (inactive) | 58.9 µM (inactive) | 78.9 µM (inactive) | > 100 µM (inactive) | 57 µM (inactive) | 67.8 µM (inactive) | 73.1 µM (inactive) | 55.3 µM (inactive) | > 100 µM (inactive) | 57.9 µM (inactive) | 32.3 µM (inactive) | 58.3 µM (inactive) | 35.6 µM (inactive) | 69.7 µM (inactive) | –
CCOC(=O)C(=CNC(Cc1c[nH]c2ccccc12)C(=O)OC)C(=O)OCC (centres undefined) | > 100 µM (inactive) | > 100 µM (inactive) | > 100 µM (inactive) | > 100 µM (inactive) | – | > 100 µM (inactive) | > 100 µM (inactive) | 74.6 µM (inactive) | > 100 µM (inactive) | > 100 µM (inactive) | > 100 µM (inactive) | > 100 µM (inactive) | – | > 100 µM (inactive) | > 100 µM (inactive) | > 100 µM (inactive) | 16.6 µM (inactive) | –
Cc1ccc(N(C(=O)CC(=O)NN)C(=O)c2ccccc2Cl)cc1 | > 100 µM (inactive) | > 100 µM (inactive) | > 100 µM (inactive) | > 100 µM (inactive) | > 100 µM (inactive) | – | > 100 µM (inactive) | > 100 µM (inactive) | > 100 µM (inactive) | > 100 µM (inactive) | > 100 µM (inactive) | > 100 µM (inactive) | > 100 µM (inactive) | > 100 µM (inactive) | > 100 µM (inactive) | > 100 µM (inactive) | > 100 µM (inactive) | –
O=C1c2ccccc2C(=O)c2sc(Nc3ccc(Cl)cc3)nc21 | 5.53 µM (inactive) | 2.44 µM (inactive) | 4.55 µM (inactive) | 1.75 µM (inactive) | 2.04 µM (inactive) | 5.89 µM (inactive) | 2.4 µM (inactive) | 3.35 µM (inactive) | 7.16 µM (inactive) | 1.59 µM (inactive) | 16.1 µM (inactive) | 1.09 µM (active) | 1.53 µM (inactive) | 1.32 µM (inactive) | 7.53 µM (inactive) | 4.15 µM (inactive) | – | 1.86 µM (inactive)
C#CCOc1c(C(=O)OCC)c(=O)n(C)c2ccccc12 | > 100 µM (inactive) | > 100 µM (inactive) | > 100 µM (inactive) | > 100 µM (inactive) | – | > 100 µM (inactive) | > 100 µM (inactive) | > 100 µM (inactive) | > 100 µM (inactive) | > 100 µM (inactive) | > 100 µM (inactive) | > 100 µM (inactive) | – | > 100 µM (inactive) | > 100 µM (inactive) | > 100 µM (inactive) | 70 µM (inactive) | –
Brc1c2nc3ccccc3nc2n2ccc3ccccc3c12 | – | 47.6 µM (inactive) | > 100 µM (inactive) | > 100 µM (inactive) | > 100 µM (inactive) | > 100 µM (inactive) | > 100 µM (inactive) | > 100 µM (inactive) | > 100 µM (inactive) | > 100 µM (inactive) | – | > 100 µM (inactive) | – | > 100 µM (inactive) | – | – | > 100 µM (inactive) | > 100 µM (inactive)
COC(=O)CC(c1ccccc1)C1(c2ccccc2)SCCS1 (centres undefined) | > 290 µM (inactive) | > 290 µM (inactive) | > 290 µM (inactive) | 169 µM (inactive) | 108 µM (inactive) | > 290 µM (inactive) | 150 µM (inactive) | – | > 290 µM (inactive) | 130 µM (inactive) | – | 232 µM (inactive) | > 290 µM (inactive) | 105 µM (inactive) | > 290 µM (inactive) | 222 µM (inactive) | 12.6 µM (inactive) | 54.8 µM (inactive)
Cn1nc(N)nc1N=S(C)(C)=N | > 100 µM (inactive) | > 100 µM (inactive) | > 100 µM (inactive) | > 100 µM (inactive) | > 100 µM (inactive) | > 100 µM (inactive) | > 100 µM (inactive) | 88.9 µM (inactive) | > 100 µM (inactive) | – | > 100 µM (inactive) | > 100 µM (inactive) | > 100 µM (inactive) | > 100 µM (inactive) | 72.4 µM (inactive) | > 100 µM (inactive) | > 100 µM (inactive) | –
CCCCN(CCCC)C(=O)/C(CC(=O)c1cccc2ccccc12)=N\NC(=O)c1cc2ccccc2cc1O | 18.3 µM (inactive) | 15.3 µM (inactive) | – | 16.4 µM (inactive) | 24.8 µM (inactive) | 40.1 µM (inactive) | 11.2 µM (inactive) | 10.1 µM (inactive) | 23 µM (inactive) | 13 µM (inactive) | – | 32 µM (inactive) | 24.8 µM (inactive) | 3.94 µM (inactive) | 19.9 µM (inactive) | 23.8 µM (inactive) | 19.2 µM (inactive) | –
O=C1CCCCCCCCCCC(=O)C2CCOCCOCCOCCC1Cc1cccc(n1)C2 | 76.7 µM (inactive) | 90.4 µM (inactive) | > 100 µM (inactive) | 59.3 µM (inactive) | 59.3 µM (inactive) | > 100 µM (inactive) | 94.4 µM (inactive) | 42.1 µM (inactive) | 93.3 µM (inactive) | > 100 µM (inactive) | 82.8 µM (inactive) | > 100 µM (inactive) | 32 µM (inactive) | 59.2 µM (inactive) | 60 µM (inactive) | > 100 µM (inactive) | – | –
CCCOc1nc(N)c2cnn(C3CCCCO3)c2n1 (centres undefined) | > 100 µM (inactive) | > 100 µM (inactive) | > 100 µM (inactive) | > 100 µM (inactive) | > 100 µM (inactive) | – | > 100 µM (inactive) | > 100 µM (inactive) | > 100 µM (inactive) | – | – | > 100 µM (inactive) | > 100 µM (inactive) | > 100 µM (inactive) | > 100 µM (inactive) | > 100 µM (inactive) | > 100 µM (inactive) | > 100 µM (inactive)
CC(C)(C)[Si](C)(C)O/N=C\c1cccc(O[Si](C)(C)C(C)(C)C)c1 | 18 µM (inactive) | 18.6 µM (inactive) | 21.9 µM (inactive) | 20 µM (inactive) | 18 µM (inactive) | 24.5 µM (inactive) | 18.3 µM (inactive) | 15.6 µM (inactive) | 17.8 µM (inactive) | 19.2 µM (inactive) | – | 18.5 µM (inactive) | 19.6 µM (inactive) | 19.3 µM (inactive) | – | 16.5 µM (inactive) | 15.5 µM (inactive) | –
CN(C)C(=S)/N=c1\ss/c(=N\C(=S)N(C)C)n1-c1ccc2c(c1)OCO2 | > 100 µM (inactive) | 10 µM (inactive) | > 100 µM (inactive) | > 100 µM (inactive) | > 100 µM (inactive) | > 100 µM (inactive) | > 100 µM (inactive) | > 100 µM (inactive) | – | > 100 µM (inactive) | > 100 µM (inactive) | > 100 µM (inactive) | > 100 µM (inactive) | – | > 100 µM (inactive) | – | – | > 100 µM (inactive)
COC(=O)C(CC(=O)c1c[nH]c2ccccc12)c1c[nH]c2ccccc12 (centres undefined) | > 10 µM (inactive) | > 10 µM (inactive) | 19.3 µM (inactive) | 22.6 µM (inactive) | > 10 µM (inactive) | 31.2 µM (inactive) | – | 18.2 µM (inactive) | – | – | 20.3 µM (inactive) | 22.8 µM (inactive) | 14 µM (inactive) | 17.9 µM (inactive) | 22 µM (inactive) | 16.9 µM (inactive) | – | –
COc1cc2c[n+](C)c3c4cc(OC)c(OC(C)C)cc4ccc3c2cc1OC | > 100 µM (inactive) | 45.1 µM (inactive) | > 100 µM (inactive) | 35.4 µM (inactive) | 29.8 µM (inactive) | > 100 µM (inactive) | 47 µM (inactive) | > 100 µM (inactive) | 10.5 µM (inactive) | 46.5 µM (inactive) | – | 36.3 µM (inactive) | > 100 µM (inactive) | 56.2 µM (inactive) | 98.4 µM (inactive) | 49.3 µM (inactive) | 73.6 µM (inactive) | 43.2 µM (inactive)
Cc1ccccc1C(C#N)C(=O)C(=O)Nc1cccc(Cl)c1 (centres undefined) | > 100 µM (inactive) | > 100 µM (inactive) | > 100 µM (inactive) | > 100 µM (inactive) | > 100 µM (inactive) | > 100 µM (inactive) | > 100 µM (inactive) | > 100 µM (inactive) | 58.3 µM (inactive) | 19.1 µM (inactive) | > 100 µM (inactive) | 15.7 µM (inactive) | > 100 µM (inactive) | 39.4 µM (inactive) | > 100 µM (inactive) | > 100 µM (inactive) | > 100 µM (inactive) | –
CN(c1n[n+]2c(-c3ccccc3)csc2s1)c1n[n+]2c(-c3ccccc3)csc2s1 | > 100 µM (inactive) | > 100 µM (inactive) | > 100 µM (inactive) | > 100 µM (inactive) | > 100 µM (inactive) | > 100 µM (inactive) | > 100 µM (inactive) | > 100 µM (inactive) | 46.7 µM (inactive) | > 100 µM (inactive) | – | > 100 µM (inactive) | > 100 µM (inactive) | 68.9 µM (inactive) | > 100 µM (inactive) | > 100 µM (inactive) | > 100 µM (inactive) | 61.5 µM (inactive)
